From PMC8462099 (Molecular cell, 2021) come the findings set out here.

Each structure is given as a SMILES string.

Usually IC50 stands for the concentration that gives 50% inhibition. Read a low IC50 as higher potency.

Assay [1] concerns the target T1, AMPKγ1 (Homo sapiens, UniProt P54619). Kind of assay: [3H]AMP binding to GST fusion protein.
Assay [2] deals with T1, AMPKγ1. The assay is described as follows: [3H]inositol saturation binding.

T1 sequence (P54619 whole entry, the tested form may be a part): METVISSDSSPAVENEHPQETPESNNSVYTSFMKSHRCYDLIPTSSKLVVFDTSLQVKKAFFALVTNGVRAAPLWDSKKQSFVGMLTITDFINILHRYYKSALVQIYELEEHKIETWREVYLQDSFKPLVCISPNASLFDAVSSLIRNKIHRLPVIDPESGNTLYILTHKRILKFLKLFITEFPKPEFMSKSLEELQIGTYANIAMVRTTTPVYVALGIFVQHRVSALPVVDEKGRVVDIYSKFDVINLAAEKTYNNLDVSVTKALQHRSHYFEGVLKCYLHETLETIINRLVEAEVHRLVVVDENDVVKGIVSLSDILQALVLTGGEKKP

In turn, `Nc1ncnc2c1ncn2[C@@H]1O[C@H](COP(=O)(O)O)[C@@H](O)[C@H]1O` [AMP] came in with an IC50 on AMPKγ1 [1] of 1.9 µM.
As for `O[C@H]1[C@H](O)[C@@H](O)[C@H](O)[C@@H](O)[C@H]1O` [Ins, inositol], the Kd at AMPKγ1 [2] is recorded as 98.2 pmol.
